Converted amounts (≈) assume the structure as drawn.
Key:
Assay type in all cases: functional
[1] = system: Staphylococcus epidermidis; test: Ratio of MBC to MIC against Staphylococcus epidermidis ATCC 12228
[2] = system: Staphylococcus aureus; test: Antimicrobial activity against Staphylococcus aureus ATCC 29213 assessed assessed as reduction in bacterial growth at 1/4 times of drug MIC in the presence of vancomycin by microdilution method
[3] = system: Escherichia coli; test: Antibacterial activity against Escherichia coli EIEC E20851 assessed as inhibition of bacterial growth incubated for 24 hrs by microdilution assay
[4] = system: Staphylococcus aureus; test: Bactericidal activity against Staphylococcus aureus ATCC 43300 assessed as bacterial killing incubated for 24 hrs by microdilution assay
[5] = system: Streptococcus sobrinus; test: Antimicrobial activity against Streptococcus sobrinus ATCC 27351 assessed assessed as reduction in bacterial growth at 1/8 times of drug MIC in the presence of Ampicillin by microdilution method
[6] = system: Enterococcus faecalis; test: Antimicrobial activity against Enterococcus faecalis ATCC 51299 assessed assessed as reduction in bacterial growth at 1/8 times of drug MIC in the presence of Teicoplanin by microdilution method
[7] = system: Streptococcus sobrinus; test: Ratio of MBC to MIC against Streptococcus sobrinus ATCC 27351
[8] = system: Staphylococcus aureus; test: Antibiofilm activity against drug-resistant Staphylococcus aureus MED 55 assessed as inhibition of biofilm formation incubated for 24 hrs by crystal violet staining based microtiter plate method
[9] = system: Staphylococcus epidermidis; test: Antimicrobial activity against Staphylococcus epidermidis 70 D assessed assessed as reduction in bacterial growth at 1/8 times of drug MIC in the presence of vancomycin by microdilution method
[10] = system: Klebsiella pneumoniae; test: Antibacterial activity against Klebsiella pneumoniae ATCC 700603 assessed as inhibition of bacterial growth incubated for 24 hrs by microdilution assay
[11] = system: Escherichia coli; test: Antibacterial activity against Escherichia coli ATCC 35218 assessed as inhibition of bacterial growth incubated for 24 hrs by microdilution assay
[12] = system: Streptococcus agalactiae; test: Antimicrobial activity against Streptococcus agalactiae ATCC 13813 assessed assessed as reduction in bacterial growth at 1/8 times of drug MIC in the presence of Oxacillin by microdilution method
[13] = system: Serratia marcescens; test: Antibacterial activity against Serratia marcescens ATCC 13880 assessed as inhibition of bacterial growth incubated for 24 hrs by microdilution assay; conditions: subsp. marcescens ATCC 13880
[14] = system: Streptococcus agalactiae; test: Antimicrobial activity against Streptococcus agalactiae ATCC 13813 assessed assessed as reduction in bacterial growth at 1/4 times of drug MIC in the presence of Oxacillin by microdilution method
[15] = system: Streptococcus sobrinus; test: Antimicrobial activity against Streptococcus sobrinus ATCC 27351 assessed assessed as reduction in bacterial growth at 1/4 times of drug MIC in the presence of Ampicillin by microdilution method
[16] = system: Staphylococcus epidermidis; test: Ratio of MBC to MIC against Staphylococcus epidermidis 70 D
[17] = system: Enterococcus durans; test: Antimicrobial activity against Enterococcus durans BIO 0114 assessed assessed as reduction in bacterial growth at 1/4 times of drug MIC in the presence of Teicoplanin by microdilution method
[18] = system: Staphylococcus epidermidis; test: Antibacterial activity against Staphylococcus epidermidis ATCC 12228 assessed as inhibition of bacterial growth incubated for 24 hrs by microdilution assay
[19] = system: Streptococcus mutans; test: Antimicrobial activity against Streptococcus mutans ATCC 25175 assessed assessed as reduction in bacterial growth at 1/4 times of drug MIC in the presence of Ampicillin by microdilution method
[20] = system: Streptococcus pyogenes; test: Ratio of MBC to MIC against Streptococcus pyogenes ATCC 19615
[21] = system: Staphylococcus aureus; test: Antimicrobial activity against Staphylococcus aureus MED 55 assessed assessed as reduction in bacterial growth at 1/8 times of drug MIC in the presence of vancomycin by microdilution method
[22] = system: Staphylococcus aureus; test: Antimicrobial activity against Staphylococcus aureus MED 55 assessed assessed as reduction in bacterial growth at 1/4 times of drug MIC in the presence of Oxacillin by microdilution method
[23] = system: Streptococcus pyogenes; test: Bactericidal activity against Streptococcus pyogenes ATCC 19615 assessed as bacterial killing incubated for 24 hrs by microdilution assay
[24] = system: Streptococcus agalactiae; test: Ratio of MBC to MIC against Streptococcus agalactiae ATCC 13813
[25] = system: Pseudomonas aeruginosa; test: Antibacterial activity against Pseudomonas aeruginosa ATCC 27853 assessed as inhibition of bacterial growth incubated for 24 hrs by microdilution assay
[26] = system: Staphylococcus aureus; test: Bactericidal activity against Staphylococcus aureus MED 55 assessed as bacterial killing incubated for 24 hrs by microdilution assay
[27] = system: Staphylococcus aureus; test: Antimicrobial activity against Staphylococcus aureus ATCC 29213 assessed assessed as reduction in bacterial growth at 1/8 times of drug MIC in the presence of vancomycin by microdilution method
[28] = system: Staphylococcus aureus; test: Ratio of MBC to MIC against Staphylococcus aureus MED 55
[29] = system: Escherichia coli; test: Antibacterial activity against Escherichia coli EAEC I 4913 assessed as inhibition of bacterial growth incubated for 24 hrs by microdilution assay
[30] = system: Enterococcus faecalis; test: Antibacterial activity against Enterococcus faecalis ATCC 6569 assessed as inhibition of bacterial growth incubated for 24 hrs by microdilution assay
[31] = system: Escherichia coli; test: Antibacterial activity against Escherichia coli EOL 931 assessed as inhibition of bacterial growth incubated for 24 hrs by microdilution assay
[32] = system: Streptococcus mutans; test: Antibiofilm activity against drug-resistant Streptococcus mutans ATCC 25175 assessed as inhibition of biofilm formation incubated for 24 hrs by crystal violet staining based microtiter plate method
[33] = system: Streptococcus sobrinus; test: Antibiofilm activity against drug-resistant Streptococcus sobrinus ATCC 27351 assessed as inhibition of biofilm formation incubated for 24 hrs by crystal violet staining based microtiter plate method
[34] = system: Staphylococcus epidermidis; test: Bactericidal activity against Staphylococcus epidermidis 70 D assessed as bacterial killing incubated for 24 hrs by microdilution assay
[35] = system: Staphylococcus aureus; test: Antibacterial activity against Staphylococcus aureus MED 55 assessed as inhibition of bacterial growth incubated for 24 hrs by microdilution assay
[36] = system: Acinetobacter baumannii; test: Antibacterial activity against Acinetobacter baumannii ATCC 19606 assessed as inhibition of bacterial growth incubated for 24 hrs by microdilution assay; conditions: ATCC 19606 = CIP 70.34 = JCM 6841
[37] = system: Proteus mirabilis; test: Antibacterial activity against Proteus mirabilis ATCC 25933 assessed as inhibition of bacterial growth incubated for 24 hrs by microdilution assay
[38] = system: Enterococcus durans; test: Antibacterial activity against Enterococcus durans BIO 0114 assessed as inhibition of bacterial growth incubated for 24 hrs by microdilution assay
[39] = system: Enterococcus durans; test: Antimicrobial activity against Enterococcus durans BIO 0114 assessed assessed as reduction in bacterial growth at 1/8 times of drug MIC in the presence of Teicoplanin by microdilution method
[40] = system: Escherichia coli; test: Antibacterial activity against Escherichia coli EPEC E234969 assessed as inhibition of bacterial growth incubated for 24 hrs by microdilution assay
[41] = system: Streptococcus mutans; test: Bactericidal activity against Streptococcus mutans ATCC 25175 assessed as bacterial killing incubated for 24 hrs by microdilution assay

Molecule `CC(C)=CCC/C(C)=C/CC/C(C)=C/CO` [FARNESOL] has a Ratio [1] of over 4, an MIC [2] of 2 µg/mL and an MIC [3] of over 1020 µg/mL. It also gave an MBC [4] of 512 µg/mL (≈ 2300 µM), an MIC [5] of 0.125 µg/mL and an MIC [6] of 1 µg/mL. For the same molecule, the Ratio [7] was 2, the MIC [8] was 2 µg/mL (≈ 8.99 µM) and the MIC [9] was 2 µg/mL. The MIC [10] was over 1020 µg/mL, the MIC [11] was over 1020 µg/mL and the MIC [12] was 0.25 µg/mL. For the same molecule, the MIC [13] was over 1020 µg/mL, the MIC [14] was 0.25 µg/mL and the MIC [15] was 0.125 µg/mL. It also gave a Ratio [16] of 2, an MIC [17] of 1 µg/mL and an MIC [18] of 32 µg/mL (≈ 144 µM). For the same molecule, the MIC [19] was 0.5 µg/mL, the Ratio [20] was 4 and the MIC [21] was 2 µg/mL. It also gave an MIC [22] of 128 µg/mL, an MBC [23] of 64 µg/mL (≈ 288 µM) and a Ratio [24] of 2. For the same molecule, the MIC [25] was over 1020 µg/mL, the MBC [26] was 128 µg/mL (≈ 576 µM) and the MIC [27] was 2 µg/mL. It also gave a Ratio [28] of 2, an MIC [29] of over 1020 µg/mL and an MIC [30] of over 1020 µg/mL. The MIC [31] was over 1020 µg/mL, the MIC [32] was 128 µg/mL (≈ 576 µM) and the MIC [33] was 8 µg/mL (≈ 36 µM). For the same molecule, the MBC [34] was 128 µg/mL (≈ 576 µM), the MIC [35] was 64 µg/mL (≈ 288 µM) and the MIC [36] was over 1020 µg/mL. For the same molecule, the MIC [37] was over 1020 µg/mL, the MIC [38] was 64 µg/mL (≈ 288 µM) and the MIC [39] was 1 µg/mL. It also gave an MIC [40] of over 1020 µg/mL and an MBC [41] of over 512 µg/mL.

Reference: ChEMBL document CHEMBL4825691, “Antimicrobial, modulatory, and antibiofilm activity of tt-farnesol on bacterial and fungal strains of importance to human health” (2021)
